US20110263593A1, “NOVEL IMIDAZO[1,2-a]PYRIMIDINE DERIVATIVES, METHOD FOR THE PREPARATION THEREOF, USE THEREOF AS MEDICAMENTS, PHARMACEUTICAL COMPOSITIONS AND NOVEL USE, IN PARTICULAR AS MET INHIBITORS” (sanofi-aventis, priority 2008, published 2011)
Counter-ions that a name gives are not always drawn.

Tests used:
MET [1] = biological target: T1, MET (Homo sapiens, UniProt P08581); assay: Test B: inhibition of the autophosphorylation of MET, ELISA technique (pppY1230, 1234, 1235) in MKN45 cells; format: cell-based; parameters: endogenous in cells; host or cells: MKN45 cells; details: 1 h treatment, phosphoMET ELISA
Protocol: B) Test B: Inhibition of the Autophosphorylation of MET; ELISA Technique (pppY1230, 1234, 1235)
a) Cell lysates: Seed MKN45 cells into 96-well plates (Cell coat BD polylysine) at 20 000 cells/well in 200 μl in RPMI medium+10% FCS+1% L-glutamine. Leave to adhere for 24 hours in an incubator.
The cells are treated the day after seeding with the products at 6 concentrations in duplicate for 1 h. At least 3 control wells are treated with the same final amount of DMSO.
Product dilution: Stock at 10 mM in pure DMSO—range from 10 mM to 30 μM with an increment of 3 in pure DMSO—intermediate 1/50 dilutions in culture medium and then removal of 10 μl added directly to the cells (200 μl): final range from 10 000 to 30 nM.
At the end of the incubation, carefully remove the supernatant and rinse with 200 μl of PBS. Next, place 100 μl of lysis buffer directly in the wells on ice and incubate at 4° C. for 30 minutes. Lysis buffer: 10 mM Tris HCl, pH 7.4, 100 mM NaCl, 1 mM EDTA, 1 mM EGTA, 1% Triton X-100, 10% glycerol, 0.1% SDS, 0.5% deoxycholate, 20 mM NaF, 2 mM Na3VO4, 1 mM PMSF and cocktail of antiproteases.
The 100 μl of lysates are transferred into a V-bottomed polypropylene plate and the ELISA is performed immediately, or the plate is frozen at −80° C.
b) PhosphoMET ELISA BioSource Kit KH00281
Into each well of the kit plate, add 70 μl of kit dilution buffer+30 μl of cell lysate or 30 μl of lysis buffer for the blanks. Incubate for 2 h with gentle agitation at ambient temperature.
Rinse the wells 4 times with 400 μl of kit washing buffer. Incubate with 100 μl of anti-phospho MET antibody for 1 hour at ambient temperature.
Rinse the wells 4 times with 400 μl of kit washing buffer. Incubate with 100 μl of anti-rabbit HRP antibody for 30 minutes at ambient temperature (except for the wells of chromogen alone).
Rinse the wells 4 times with 400 μl of kit washing buffer. Introduce 100 μl of chromogen and incubate for 30 minutes in the dark at ambient temperature.
Stop the reaction with 100 μl of stop solution. Read without delay at […], 0.1 second on Wallac Victor plate reader.
Target sequence in this assay (P08581 25-1390): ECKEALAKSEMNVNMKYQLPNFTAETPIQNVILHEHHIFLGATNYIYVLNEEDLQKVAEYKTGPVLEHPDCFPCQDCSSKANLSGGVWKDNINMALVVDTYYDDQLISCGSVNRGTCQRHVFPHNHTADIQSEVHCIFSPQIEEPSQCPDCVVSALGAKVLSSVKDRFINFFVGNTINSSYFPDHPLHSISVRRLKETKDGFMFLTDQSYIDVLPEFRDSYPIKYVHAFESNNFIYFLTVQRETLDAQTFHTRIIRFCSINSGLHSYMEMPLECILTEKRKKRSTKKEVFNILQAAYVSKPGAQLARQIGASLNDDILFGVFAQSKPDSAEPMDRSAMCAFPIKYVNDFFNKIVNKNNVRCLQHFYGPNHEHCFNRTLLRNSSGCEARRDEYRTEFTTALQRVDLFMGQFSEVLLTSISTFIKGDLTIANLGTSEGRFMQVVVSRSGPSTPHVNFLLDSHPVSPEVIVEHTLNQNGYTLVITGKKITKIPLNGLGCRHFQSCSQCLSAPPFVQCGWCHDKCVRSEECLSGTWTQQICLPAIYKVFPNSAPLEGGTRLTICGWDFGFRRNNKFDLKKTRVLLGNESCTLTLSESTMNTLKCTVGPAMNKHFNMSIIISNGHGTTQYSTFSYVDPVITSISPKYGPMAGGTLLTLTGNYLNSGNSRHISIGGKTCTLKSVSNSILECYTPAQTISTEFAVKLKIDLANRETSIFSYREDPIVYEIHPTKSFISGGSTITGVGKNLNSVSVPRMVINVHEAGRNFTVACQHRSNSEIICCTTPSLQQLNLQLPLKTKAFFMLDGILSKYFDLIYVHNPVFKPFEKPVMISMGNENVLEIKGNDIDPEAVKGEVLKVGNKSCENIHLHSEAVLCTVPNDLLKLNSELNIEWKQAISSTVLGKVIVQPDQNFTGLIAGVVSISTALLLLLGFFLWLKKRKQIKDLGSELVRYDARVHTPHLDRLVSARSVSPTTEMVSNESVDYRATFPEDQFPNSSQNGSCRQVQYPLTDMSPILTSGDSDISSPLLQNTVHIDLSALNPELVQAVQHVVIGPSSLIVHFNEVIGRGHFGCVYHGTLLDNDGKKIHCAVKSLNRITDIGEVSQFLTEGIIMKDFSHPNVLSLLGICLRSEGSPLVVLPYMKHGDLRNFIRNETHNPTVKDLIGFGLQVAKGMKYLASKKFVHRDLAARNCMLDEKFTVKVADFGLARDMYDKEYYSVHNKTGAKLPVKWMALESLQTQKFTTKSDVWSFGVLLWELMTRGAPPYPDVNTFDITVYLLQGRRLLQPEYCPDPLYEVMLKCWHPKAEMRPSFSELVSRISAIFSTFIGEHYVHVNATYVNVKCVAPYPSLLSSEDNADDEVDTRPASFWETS

[2] = tested on: HCT116 cells and MKN45 cells; assay: Test C: measurement of cell proliferation by 14C-thymidine pulse; format: cell-based; details: 14C-thymidine incorporation, 96 h of treatment; cell line not stated (HCT116 and MKN45 in method)
Protocol: C) Test C: Measurement of cell proliferation by ^14C-thymidine pulse
The cells are seeded into Cytostar 96-well plates in 180 μl for 4 hours at 37° C. and 5% CO2: HCT116 cells at a rate of 2500 cells per well in DMEM medium+10% foetal calf serum+1% L-glutamine and MKN45 cells at a rate of 7500 cells per well in RPMI medium+10% foetal calf serum+1% L-glutamine. After these 4 hours of incubation, the products are added in 10 μl as a 20-fold concentrated solution according to the dilution method mentioned for the ELISA. The products are tested at 10 concentrations in duplicate from 10 000 nM to 0.3 nM with an increment of 3.
After treatment for 72 h, add 10 μl of ^14C-thymidine at 10 μCi/ml to obtain 0.1 μCi per well. The ^14C-thymidine incorporation is measured on a Micro-Beta machine (Perkin-Elmer) after 24 hours of pulse and 96 h of treatment.
All the stages of the assay are automated on BIOMEK 2000 or TECAN stations.

MET [3] = biological target: T1, MET; assay: Test A: HTRF MET assay in 96-well format; format: biochemical; parameters: The His-Tev-MET (956-1390) recombinant DNA in pFastBac (Invitrogen) is transfected into insect cells; His (N, cleaved yes); Tev cleavage site (N, cleaved yes); made in house; host or cells: SF21 insect cells (baculovirus, pFastBac); details: 5 nM MET, 10 μM ATP
Protocol: I) Expression and Purification of MET, Cytoplasmic Domain
The His-Tev-MET (956-1390) recombinant DNA in pFastBac (Invitrogen) is transfected into insect cells and, after several viral amplification stages, the final baculovirus stock is tested for the expression of the protein of interest.
After infection for 72 h at 27° C. with the recombinant virus, the SF21 cell cultures are harvested by centrifugation and the cell pellets are stored at −80° C.
The cell pellets are resuspended in lysis buffer (buffer A [50 mM HEPES, pH 7.5, 250 mM NaCl, 10% glycerol, 1 mM TECP]; + cocktail of protease inhibitors, Roche Diagnostics, without EDTA, ref. 1873580), stirred at 4° C. until the mixture is homogeneous and then lysed mechanically using a “Dounce” type apparatus.
After centrifugation, the lysis supernatant is incubated for 2 h at 4° C. with nickel chelate resin (His-Trap 6 Fast Flow™, GE HealthCare). After washing with 20 volumes of buffer A, the suspension is packed into a column, and the proteins are eluted with a gradient of buffer B (buffer A+290 mM imidazole).
The fractions comprising the protein of interest for the purpose of electrophoretic analysis (SDS PAGE) are combined, concentrated by ultrafiltration (10 kDa cut-off) and injected onto an exclusion chromatography column (Superdex™ 200, GE HealthCare) equilibrated in buffer A.
After enzymatic cleavage of the histidine tag, the protein is reinjected onto a new IMAC nickel chelate chromatography column (His-Trap 6 Fast Flow™, GE HealthCare) equilibrated in buffer A. The fractions eluted with a gradient of buffer B and comprising the protein of interest after electrophoresis (SDS PAGE) are finally combined and conserved at −80° C.
For the production of autophosphorylated protein, the previous fractions are incubated for 1 h at ambient temperature after the addition of 2 mM ATP, 2 mM MgCl2, and 4 mM Na3VO4. After the reaction has been stopped with 5 mM of EDTA, the reaction mixture is injected onto a HiPrep desalifying column (GE HealthCare) preequilibrated in buffer A+4 mM Na3VO4, and the fractions comprising the protein of interest (SDS PAGE analysis) are combined and stored at −80° C. The degree of phosphorylation is verified by mass spectrometry (LC-MS) and by peptide mapping.
A) Test A: HTRF MET Assay in 96-Well Format
MET at a final concentration of 5 nM is incubated in a final volume of 50 μl of enzymatic reaction in the presence of the test molecule (for a final concentration range of from 0.17 nM to 10 μM, 3% DMSO final concentration) in 10 mM MOPS buffer, pH 7.4, 1 mM DTT, 0.01% Tween 20. The reaction is initiated with the substrate solution to obtain final concentrations of 1 μg/ml poly-(GAT), 10 μM ATP and 5 mM MgCl2. After incubation for 10 min at ambient temperature, the reaction is stopped with a 30 μl mix so as to obtain a final solution of 50 mM Hepes, pH 7.5, 500 mM potassium fluoride, 0.1% BSA and 133 mM EDTA in the presence of 80 ng of streptavidin 61SAXLB Cis-Bio Int. and 18 ng of anti-phosphotyrosine Mab PT66-Europium Cryptate per well. After incubation for 2 hours at ambient temperature, the reading is taken at 2 wavelengths, 620 nm and 665 nm, on a reader for the TRACE/HTRF technique and the % inhibition is calculated from the 665/620 ratios.
Target sequence in this assay (P08581 956-1390): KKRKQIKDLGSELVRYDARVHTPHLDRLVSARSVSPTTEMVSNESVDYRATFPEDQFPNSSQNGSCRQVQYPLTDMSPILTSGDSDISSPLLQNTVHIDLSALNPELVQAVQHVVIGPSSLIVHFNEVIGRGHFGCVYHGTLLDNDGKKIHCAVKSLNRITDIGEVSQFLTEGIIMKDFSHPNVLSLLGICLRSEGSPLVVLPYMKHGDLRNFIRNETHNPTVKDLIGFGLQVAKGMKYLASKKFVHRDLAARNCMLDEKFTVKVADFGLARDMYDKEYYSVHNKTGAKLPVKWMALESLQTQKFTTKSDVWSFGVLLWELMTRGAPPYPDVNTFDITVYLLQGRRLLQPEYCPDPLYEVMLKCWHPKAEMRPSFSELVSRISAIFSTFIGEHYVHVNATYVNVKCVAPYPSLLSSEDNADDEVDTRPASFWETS

Structure (SMILES)	IC50 (MET [1])	IC50 [2]	melting point	IC50 (MET [3])
NCC(=O)Nc1nc2ccc(Sc3cnc4ncccn34)cc2s1 [Example 12, N-[6-(imidazo[1,2-a]pyrimidin-3-ylsulphanyl)-1,3-benzothiazol-2-yl]glycinamide dihydrochloride]	–	< 1 µM	–	< 0.5 µM
O=C(Nc1nc2ccc(Sc3cnc4ncccn34)cc2s1)C1CC1CN1CCOCC1 (stereo not drawn) [Example 13, (trans-A)-N-[6-(imidazo[1,2-a]pyrimidin-3-ylsulphanyl)-1,3-benzothiazol-2-yl]-2-(morpholin-4-ylmethyl)cyclopropanecarboxamide]	< 0.1 µM	< 1 µM	–	< 0.1 µM
O=C(Nc1nc2ccc(Sc3cnc4ncccn34)cc2s1)C1CC1CN1CCOCC1 (stereo not drawn) [Example 14, (trans-B)-N-[6-(imidazo[1,2-a]pyrimidin-3-ylsulphanyl)-1,3-benzothiazol-2-yl]-2-(morpholin-4-ylmethyl)cyclopropanecarboxamide]	–	< 1 µM	–	< 0.1 µM
CN1CCN(CC(=O)Nc2nc3ccc(Sc4cnc5ncccn45)cc3s2)CC1=O [Example 21, N-[6-(imidazo[1,2-a]pyrimidin-3-ylsulphanyl)-1,3-benzothiazol-2-yl]-2-(4-methyl-3-oxopiperazin-1-yl)acetamide]	< 0.1 µM	< 1 µM	–	< 0.1 µM
O=C(Nc1nc2ccc(Sc3cnc4ncc(-c5cccc(F)c5)cn34)cc2s1)C1CC1 [Example 23, N-(6-{[6-(3-fluorophenyl)imidazo[1,2-a]pyrimidin-3-yl]sulphanyl}-1,3-benzothiazol-2-yl)cyclopropanecarboxamide]	< 0.1 µM	< 1 µM	–	< 0.1 µM
O=C(Nc1nc2ccc(Sc3cnc4ncc(OC5CCCCC5)cn34)cc2s1)C1CC1 [Example 24, N-(6-{[6-(cyclohexyloxy)imidazo[1,2-a]pyrimidin-3-yl]sulphanyl}-1,3-benzothiazol-2-yl)cyclopropanecarboxamide]	< 0.1 µM	< 1 µM	–	< 0.1 µM
Nc1nc2ccc(Sc3cnc4ncc(NC5CCCCC5)cn34)cc2s1 [Example 25, 3-[(2-amino-1,3-benzothiazol-6-yl)sulphanyl]-N-cyclohexylimidazo[1,2-a]pyrimidin-6-amine]	< 0.1 µM	< 1 µM	–	< 0.1 µM

Results, then the compound that gave them:

IC50 (MET [1])	IC50 [2]	melting point	IC50 (MET [3])	Structure (SMILES)
< 0.5 µM	< 1 µM	> 260 °C	< 0.1 µM	Nc1nc2ccc(Sc3cnc4ncccn34)cc2s1 [Example 1, 6-(imidazo[1,2-a]pyrimidin-3-ylsulphanyl)-1,3-benzothiazol-2-amine]
< 0.1 µM	< 1 µM	258 °C	< 0.1 µM	O=C(Nc1nc2ccc(Sc3cnc4ncccn34)cc2s1)C1CC1 [Example 2, N-[6-(imidazo[1,2-a]pyrimidin-3-ylsulphanyl)-1,3-benzothiazol-2-yl]cyclopropanecarboxamide]
< 0.1 µM	< 1 µM	> 260 °C	< 0.1 µM	CC(=O)Nc1nc2ccc(Sc3cnc4ncccn34)cc2s1 [Example 3, N-[6-(imidazo[1,2-a]pyrimidin-3-ylsulphanyl)-1,3-benzothiazol-2-yl]acetamide]
< 0.1 µM	< 1 µM	> 260 °C	< 0.1 µM	O=C(NCCN1CCOCC1)Nc1nc2ccc(Sc3cnc4ncccn34)cc2s1 [Example 4, 1-[6-(imidazo[1,2-a]pyrimidin-3-ylsulphanyl)-1,3-benzothiazol-2-yl]-3-[2-(morpholin-4-yl)ethyl]urea]
< 0.1 µM	< 1 µM	> 260 °C	< 0.1 µM	O=C(NCCN1CCCC1)Nc1nc2ccc(Sc3cnc4ncccn34)cc2s1 [Example 5, 1-[6-(imidazo[1,2-a]pyrimidin-3-ylsulphanyl)-1,3-benzothiazol-2-yl]-3-[2-(pyrrolidin-1-yl)ethyl]urea]
–	< 1 µM	> 260 °C	< 0.5 µM	O=C(Nc1nc2ccc([S+]([O-])c3cnc4ncccn34)cc2s1)C1CC1 (stereo not drawn) [Example 6, N-[6-(imidazo[1,2-a]pyrimidin-3-ylsulphinyl)-1,3-benzothiazol-2-yl]cyclopropanecarboxamide]
–	< 1 µM	> 260 °C	< 0.5 µM	O=C(Nc1nc2ccc(Sc3cnc4ncccn34)cc2s1)c1ccccc1 [Example 9, N-[6-(imidazo[1,2-a]pyrimidin-3-ylsulphanyl)-1,3-benzothiazol-2-yl]benzamide]
< 0.1 µM	< 1 µM	–	< 0.1 µM	CN1CCN(CC(=O)Nc2nc3ccc(Sc4cnc5ncccn45)cc3s2)CC1 [Example 10, N-[6-(imidazo[1,2-a]pyrimidin-3-ylsulphanyl)-1,3-benzothiazol-2-yl]-2-(4-methylpiperazin-1-yl)acetamide]
